Patent publication US10399932B2, “Inhibitors of indoleamine-2,3-dioxygenase for the treatment of cancer” (BRISTOL-MYERS SQUIBB COMPANY, priority 2015, dated 2019)

molecular target: human IDO1 (Homo sapiens, UniProt P14902); test: Assessment of human IDO-1 inhibitory activity in HEK cells (human IDO1/HEK293 cells, Ehrlich reagent, absorbance at 490 nm); assay type: cell-based; set-up: expressed in transfected cells; settings: In Vitro Potency in the HEK Human IDO-1 Cellular Assay
Outline: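 Stable human IDO1-expressing HEK293 cells treated with compound for 20 h at 37 °C in phenol red-free RPMI/10% FBS. Stopped with 0.2% TCA (final) and heated 30 min at 50 °C; supernatant mixed with Ehrlich reagent, absorbance read at 490 nm. IC50 normalised to DMSO (0%) and 500 nM reference standard (100% inhibition).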

human IDO1, sequence (P14902 whole entry): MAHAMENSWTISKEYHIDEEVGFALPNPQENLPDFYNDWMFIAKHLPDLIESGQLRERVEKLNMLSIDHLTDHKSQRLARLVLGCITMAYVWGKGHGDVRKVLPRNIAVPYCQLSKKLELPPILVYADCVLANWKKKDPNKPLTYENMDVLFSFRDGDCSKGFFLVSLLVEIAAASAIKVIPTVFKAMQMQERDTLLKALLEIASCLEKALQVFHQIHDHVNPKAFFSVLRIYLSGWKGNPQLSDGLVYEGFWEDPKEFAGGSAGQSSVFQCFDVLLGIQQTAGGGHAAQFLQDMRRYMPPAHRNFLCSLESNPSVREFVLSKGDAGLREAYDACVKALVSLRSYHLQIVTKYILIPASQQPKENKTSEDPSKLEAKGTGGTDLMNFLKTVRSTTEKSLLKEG

Row | SMILES | IC50
1 | CCC(CC(=O)O)c1cc(NC(=O)Nc2ccc(C)cc2)c(N(CC(C)C)CC(C)C)cc1F (single isomer, unassigned) [Example 1130, 3-(4-(Diisobutylamino)-2-fluoro-5-(3-(p-tolyl)ureido)phenyl)pentanoic acid] | < 5 nM
2 | CCOc1ccc(NC(=O)Nc2cc(C(CC)CC(=O)O)c(F)cc2N(CC(C)C)CC(C)C)cc1 (single isomer, unassigned) [Example 1133, 3-(4-(Diisobutylamino)-5-(3-(4-ethoxyphenyl)ureido)-2-fluorophenyl)pentanoic acid] | < 5 nM
3 | CCC(CC(=O)O)c1cc(NC(=O)Nc2ccc3c(c2)OCO3)c(N(CC(C)C)CC(C)C)cc1F (single isomer, unassigned) [Example 1136, 3-(5-(3-(Benzo[d][1,3]dioxol-5-yl)ureido)-4-(diisobutylamino)-2-fluorophenyl) pentanoic acid] | < 5 nM
4 | CCOc1ccc(NC(=O)Nc2cc(C(CC)CC(=O)O)c(F)cc2N(CC(C)C)CC(C)C)c(F)c1 (single isomer, unassigned) [Example 1139, 3-(4-(Diisobutylamino)-5-(3-(4-ethoxy-2-fluorophenyl)ureido)-2-fluorophenyl) pentanoic acid] | < 5 nM
5 | CCC(CC(=O)O)c1cc(NC(=O)Nc2cnc(OC)nc2)c(N(CC(C)C)CC(C)C)cc1F (single isomer, unassigned) [Example 1142, 3-(4-(Diisobutylamino)-2-fluoro-5-(3-(2-methoxypyrimidin-5-yl)ureido)phenyl)pentanoic acid] | < 5 nM
6 | CCC(CC(=O)O)c1ccc(N2CCC[C@@H]2COC)c(NC(=O)Cc2ccc(C)cc2)c1 (single isomer, unassigned) [Example 1145] | > 50 nM
7 | COCC(CC(=O)O)c1cc(F)c(N(CC(C)C)C2CCCCC2)c(NC(=O)Nc2ccc(C)cc2)c1 (single isomer, unassigned) [Example 1161, 3-(4-(cyclohexyl(isobutyl)amino)-3-fluoro-5-(3-(p-tolyl)ureido)phenyl)-4-methoxybutanoic acid] | < 5 nM
8 | COCC(CC(=O)O)c1cc(F)c(N(CC(C)C)C2CCCCC2)c(NC(=O)Nc2ccc(Cl)cc2F)c1 (single isomer, unassigned) [Example 1164, 3-(3-(3-(4-chloro-2-fluorophenyl)ureido)-4-(cyclohexyl(isobutyl)amino)-5-fluorophenyl)-4-methoxybutanoic acid] | < 5 nM
9 | CCOc1ccc(NC(=O)Nc2cc(C(COC)CC(=O)O)cc(F)c2N(CC(C)C)C2CCCCC2)c(F)c1 (single isomer, unassigned) [Example 1165, 3-(4-(cyclohexyl(isobutyl)amino)-3-(3-(4-ethoxy-2-fluorophenyl)ureido)-5-fluorophenyl)-4-methoxybutanoic acid] | < 5 nM
10 | COCC(CC(=O)O)c1cc(F)c(N(CC(C)C)C2CCCCC2)c(NC(=O)Nc2ccc(Cl)cc2)c1 (single isomer, unassigned) [Example 1166, 3-(3-(3-(4-chlorophenyl)ureido)-4-(cyclohexyl(isobutyl)amino)-5-fluorophenyl)-4-methoxybutanoic acid] | < 5 nM
11 | CCOc1ccc(CC(=O)Nc2cc(C(COC)CC(=O)O)cc(F)c2N(CC(C)C)C2CCCCC2)cc1 (single isomer, unassigned) [Example 1173, 3-(4-(cyclohexyl(isobutyl)amino)-3-(2-(4-ethoxyphenyl)acetamido)-5-fluorophenyl)-4-methoxybutanoic acid] | < 50 nM
12 | COCC(CC(=O)O)c1cc(F)c(N(CC(C)C)C2CCCCC2)c(NC(=O)Cc2ccc(C)cc2)c1 (single isomer, unassigned) [Example 1174, 3-(4-(cyclohexyl(isobutyl)amino)-3-fluoro-5-(2-(p-tolyl)acetamido)phenyl)-4-methoxybutanoic acid] | < 50 nM
13 | COCC(CC(=O)O)c1cc(F)c(N(CC(C)C)C2CCCCC2)c(NC(=O)Cc2ccc(Cl)cc2F)c1 (single isomer, unassigned) [Example 1175, 3-(3-(2-(4-chloro-2-fluorophenyl)acetamido)-4-(cyclohexyl(isobutyl)amino)-5-fluorophenyl)-4-methoxybutanoic acid] | < 50 nM

Now from value to compound:

Row | IC50 | SMILES
14 | < 5 nM | COCC(CC(=O)O)c1cc(F)c(N(CC(C)C)CC(C)C)c(NC(=O)Cc2ccc(Cl)cc2F)c1 (single isomer, unassigned) [Example 1187, 3-(3-(2-(4-Chloro-2-fluorophenyl)acetamido)-4-(diisobutylamino)-5-fluorophenyl)-4-methoxybutanoic acid]
15 | < 50 nM | COCC(CC(=O)O)c1cc(F)c(N(CC(C)C)CC(C)C)c(NC(=O)Nc2cc(C)on2)c1 (single isomer, unassigned) [Example 1188, 3-(4-(Diisobutylamino)-3-fluoro-5-(3-(5-methylisoxazol-3-yl)ureido)phenyl)-4-methoxybutanoic acid]
16 | < 5 nM | COCC(CC(=O)O)c1cc(F)c(N(CC(C)C)CC(C)C)c(NC(=O)Nc2ccc(OC)cc2F)c1 (single isomer, unassigned) [Example 1189, 3-(4-(Diisobutylamino)-3-fluoro-5-(3-(2-fluoro-4-methoxyphenyl)ureido)phenyl)-4-methoxybutanoic acid]
17 | < 50 nM | CCOc1ccc(CC(=O)Nc2cc(C(COC)CC(=O)O)cc(F)c2N(CC(C)C)CC(C)C)cc1 (single isomer, unassigned) [Example 1193, 3-(4-(Diisobutylamino)-3-(2-(4-ethoxyphenyl)acetamido)-5-fluorophenyl)-4-methoxybutanoic acid]
18 | < 5 nM | COCC(CC(=O)O)c1cc(F)c(N(CC(C)C)CC(C)C)c(NC(=O)Nc2ccc(Cl)cc2F)c1 (single isomer, unassigned) [Example 1195, 3-(3-(3-(4-Chloro-2-fluorophenyl)ureido)-4-(diisobutylamino)-5-fluorophenyl)-4-methoxybutanoic acid]
19 | < 5 nM | CC(C)CN(c1ccc(C(CC(=O)O)C2CC2)cc1NC(=O)Nc1ccc(Cl)cc1F)C1CCOCC1 (single isomer, unassigned) [Example 1199 Enantiomer 2, 3-(3-(3-(4-Chloro-2-fluorophenyl)ureido)-4-(isobutyl(tetrahydro-2H-pyran-4-yl)amino)phenyl)-3-cyclopropylpropanoic acid]
20 | < 50 nM | Cc1cc(NC(=O)Nc2cc(C(CC(=O)O)C3CC3)ccc2N(CC(C)C)C2CCOCC2)no1 (single isomer, unassigned) [Example 1201 Enantiomer 2, 3-Cyclopropyl-3-(4-(isobutyl(tetrahydro-2H-pyran-4-yl)amino)-3-(3-(5-methylisoxazol-3-yl)ureido)phenyl)propanoic acid]
21 | < 50 nM | CCOc1ccc(NC(=O)Nc2cc(C(CC(=O)O)C3CC3)ccc2N(CC(C)C)C2CCOCC2)cc1 (single isomer, unassigned) [Example 1205 Enantiomer 2, 3-Cyclopropyl-3-(3-(3-(4-ethoxyphenyl)ureido)-4-(isobutyl(tetrahydro-2H-pyran-4-yl)amino)phenyl)propanoic acid]
22 | > 50 nM | CC(C)CN(c1ccc(C(CC(=O)O)C2CC2)cc1NC(=O)Nc1cncnc1)C1CCOCC1 (single isomer, unassigned) [Example 1207 Enantiomer 2, 3-Cyclopropyl-3-(4-(isobutyl(tetrahydro-2H-pyran-4-yl)amino)-3-(3-(pyrimidin-5-yl)ureido)phenyl)propanoic acid]
23 | > 50 nM | COCC(CC(=O)O)c1ccc(N(CC(C)C)C2CCOCC2)c(NC(=O)Nc2ccc(OC(F)(F)F)cc2)c1 (single isomer, unassigned) [Example 1218, 3-(4-(Isobutyl(tetrahydro-2H-pyran-4-yl)amino)-3-(3-(4-(trifluoromethoxy)phenyl)ureido)phenyl)-4-methoxybutanoic acid]
24 | > 50 nM | CCOc1ccc(NC(=O)Nc2cc(C(COC)CC(=O)O)ccc2N(CC(C)C)C2CCOCC2)cc1 (single isomer, unassigned) [Example 1219, 3-(3-(3-(4-Ethoxyphenyl)ureido)-4-(isobutyl(tetrahydro-2H-pyran-4-yl)amino)phenyl)-4-methoxybutanoic acid]
25 | > 50 nM | COCC(CC(=O)O)c1ccc(N(CC(C)C)C2CCOCC2)c(NC(=O)Nc2cc(C)on2)c1 (single isomer, unassigned) [Example 1220, 3-(4-(Isobutyl(tetrahydro-2H-pyran-4-yl)amino)-3-(3-(5-methylisoxazol-3-yl)ureido)phenyl)-4-methoxybutanoic acid]
26 | < 5 nM | COCC(CC(=O)O)c1ccc(N(CC(C)C)C2CCCCC2)c(NC(=O)Nc2ccc(OC)cc2F)c1 (single isomer, unassigned) [Example 1239, 3-(4-(Cyclohexyl(isobutyl)amino)-3-(3-(2-fluoro-4-methoxyphenyl)ureido)phenyl)-4-methoxybutanoic acid]
27 | < 50 nM | COCC(CC(=O)O)c1ccc(N(CC(C)C)C2CCCCC2)c(NC(=O)Cc2ccc(C)cc2)c1 (single isomer, unassigned) [Example 1240, 3-(4-(Cyclohexyl(isobutyl)amino)-3-(2-(p-tolyl)acetamido)phenyl)-4-methoxybutanoic acid]
28 | < 50 nM | CCOc1ccc(CC(=O)Nc2cc(C(COC)CC(=O)O)ccc2N(CC(C)C)C2CCCCC2)cc1 (single isomer, unassigned) [Example 1242, 3-(4-(Cyclohexyl(isobutyl)amino)-3-(2-(4-ethoxyphenyl)acetamido)phenyl)-4-methoxybutanoic acid]
29 | < 5 nM | COCC(CC(=O)O)c1ccc(N(CC(C)C)C2CCCCC2)c(NC(=O)Cc2ccc(Cl)cc2F)c1 (single isomer, unassigned) [Example 1246, 3-(3-(2-(4-Chloro-2-fluorophenyl)acetamido)-4-(cyclohexyl(isobutyl)amino)phenyl)-4-methoxybutanoic acid]
30 | < 5 nM | Cc1ccc(CC(=O)Nc2cc(C(CC(=O)O)C3CC3)ccc2N(CC(C)C)C2CCCCC2)cc1 (single isomer, unassigned) [Example 1249, 3-(4-(Cyclohexyl(isobutyl)amino)-3-(2-(p-tolyl)acetamido)phenyl)-3-cyclopropylpropanoic acid]
